Test results published in ChEMBL document CHEMBL3217644, “Repairing faulty genes by aminoglycosides: Identification of new pharmacophore with enhanced suppression of disease-causing nonsense mutations” (Medchemcomm, 2011).
Values after ≈ are worked out from the molar mass of the structure shown. Where a name gives a salt, the structure may show the parent alone. Active and inactive are the calls of the source. No cut-off for these calls is given here.

Legend:
Ribosome [1] = assay: Induction of ribosome-mediated readthrough activity in rabbit reticulocyte lysate assessed as suppression of R245X mutation after 90 mins by dual luciferase reporter gene assay; conditions: Oryctolagus cuniculus
Ribosome [2] = assay: Induction of ribosome-mediated readthrough activity in rabbit reticulocyte lysate assessed as suppression of G542X mutation after 90 mins by dual luciferase reporter gene assay; conditions: Oryctolagus cuniculus
Ribosome [3] = assay: Induction of ribosome-mediated readthrough activity in rabbit reticulocyte lysate assessed as suppression of W1282X mutation after 90 mins by dual luciferase reporter gene assay; conditions: Oryctolagus cuniculus
Ribosome [4] = assay: Induction of ribosome-mediated readthrough activity in rabbit reticulocyte lysate assessed as suppression of R3381X mutation after 90 mins by dual luciferase reporter gene assay; conditions: Oryctolagus cuniculus
[5] = biological target: T1, 80S Ribosome (Homo sapiens) (UniProt P08865+P42677+P62753+P15880+P23396+P61247+P62701+P22090+P46782+P62081+P62241+P46781+P46783+P62280+P25398+P62277+P62263+P62841+P62244+P62249+P08708+P62269+P39019+P60866+P63220+P62266+P62847+P62851+P62854+P62979+P62857+P62273+P62861+P39023+P36578+P46777+Q02878+P18124+P62424+P62917+P32969+P27635+P62906+P62913+P30050+P26373+P40429+P50914+P61313+P18621+Q07020+Q02543+P84098+P46778+P35268+P62829+P62750+P83731+P61254+P61353+P46776+P46779+P47914+P62888+P62899+P62910+P49207+P42766+P18077+Q9Y3U8+P83881+P61927+P61513+P63173+P62891+P62945+P05388+P05386); assay: Induction of ribosome-mediated readthrough activity in R3X-transfected HEK293 cells assessed as suppression of R3X mutation after 16 hrs by dual luciferase reporter gene assay; type: cell-based
[6] = biological target: T1, 80S Ribosome (Homo sapiens); assay: Induction of ribosome-mediated readthrough activity in R245X-transfected HEK293 cells assessed as suppression of R245X mutation after 16 hrs by dual luciferase reporter gene assay; type: cell-based
[7] = biological target: T1, 80S Ribosome (Homo sapiens); assay: Induction of ribosome-mediated readthrough activity in Q70X-transfected HEK293 cells assessed as suppression of Q70X mutation after 16 hrs by dual luciferase reporter gene assay; type: cell-based
[8] = biological target: T1, 80S Ribosome (Homo sapiens); assay: Induction of ribosome-mediated readthrough activity in W1282X-transfected HEK293 cells assessed as suppression of W1282X mutation after 16 hrs by dual luciferase reporter gene assay; type: cell-based
[9] = Cytotoxicity against HEK293 cells; type: cell-based; conditions: human, read-out: LC50 (the source's name)
[10] = (§1) Cytotoxicity against HFF; type: cell-based; conditions: human, HFF cells; read-out: LC50 (the source's name)
Ribosome [11] = assay: Inhibition of ribosome-mediated translation in prokaryotic system
Escherichia coli = assay: Antibacterial activity against Escherichia coli R477/100 by double microdilution method; type: functional
Bacillus spizizenii = assay: Antibacterial activity against Bacillus subtilis ATCC 6633 by double microdilution method; type: functional
Ribosome [12] = assay: Induction of ribosome-mediated readthrough activity in rabbit reticulocyte lysate assessed as suppression of R3X mutation after 90 mins by dual luciferase reporter gene assay; conditions: Oryctolagus cuniculus
Ribosome [13] = assay: Induction of ribosome-mediated readthrough activity in rabbit reticulocyte lysate assessed as suppression of Q70X mutation after 90 mins by dual luciferase reporter gene assay; conditions: Oryctolagus cuniculus
HFF = assay: as §1; type: cell-based; conditions: human, hff; read-out: LC50 (the source's name)

| Compound | Activity (Ribosome [1]) | Activity (Ribosome [2]) | Activity (Ribosome [3]) | Activity (Ribosome [4]) | Activity [5] | Activity [6] | Activity [7] | Activity [8] | CC50 [9] [mM] | CC50 [10] [mM] | IC50 (Ribosome [11]) [µM] | MIC (Escherichia coli) [µM] | MIC (Bacillus spizizenii) [µM] | Activity (Ribosome [12]) | Activity (Ribosome [13]) | CC50 (HFF) [mM] |
| --- | --- | --- | --- | --- | --- | --- | --- | --- | --- | --- | --- | --- | --- | --- | --- | --- |
| C[C@H](N)[C@H]1O[C@@H](O[C@@H]2[C@@H](O)[C@H](NC(=O)[C@@H](O)CCN)C[C@H](N)[C@H]2O[C@H]2O[C@H](CO)[C@@H](O)[C@H](O)[C@H]2N)[C@H](O)[C@@H]1O | Active | Active | Active | Active | Active | Active | Active | Active | 10.1 | 8.1 | 2.27 | 1070 (≈ 608 µg/mL) | 33 (≈ 18.8 µg/mL) |  |  |  |
| C[C@@H](N)[C@H]1O[C@@H](O[C@@H]2[C@@H](O)[C@H](NC(=O)[C@@H](O)CCN)C[C@H](N)[C@H]2O[C@H]2O[C@H](CO)[C@@H](O)[C@H](O)[C@H]2N)[C@H](O)[C@@H]1O | Active | Active | Active | Active | Active | Active | Active | Active | 13.9 | 19.3 | 0.811 | 1060 (≈ 602 µg/mL) | 33 (≈ 18.8 µg/mL) |  |  |  |
| C[C@H](N)[C@H]1O[C@@H](O[C@@H]2[C@@H](O)[C@H](N)C[C@H](N)[C@H]2O[C@H]2O[C@H](CO)[C@@H](O)[C@H](O)[C@H]2N)[C@H](O)[C@@H]1O | Active | Active | Active | Active |  |  |  |  | 23.5 | 21.8 | 1.96 | 2660 (≈ 1250 µg/mL) | 83 (≈ 38.9 µg/mL) | Active | Active |  |
| NC[C@@H]1O[C@H](O[C@H]2[C@@H](O)[C@H](O[C@@H]3[C@@H](O)[C@H](N)C[C@H](N)[C@H]3O[C@H]3O[C@H](CO)[C@@H](O)[C@H](O)[C@H]3N)O[C@@H]2CO)[C@H](N)[C@@H](O)[C@@H]1O [PAROMOMYCIN SULFATE] |  |  |  |  |  |  |  |  | 4.1 | 3.1 | 0.051 |  | 1.2 |  |  |  |
| GENTAMICIN SULFATE [listing 1 of 2 here] |  |  |  |  |  |  |  |  |  |  | 0.028 |  |  |  |  | 3.2 |
| NC[C@H]1O[C@@H](O[C@@H]2[C@@H](O)[C@H](N)C[C@H](N)[C@H]2O[C@H]2O[C@H](CO)[C@@H](O)[C@H](O)[C@H]2N)[C@H](O)[C@@H]1O |  |  |  |  |  |  |  |  |  | 21.8 | 0.46 |  | 100 (≈ 45.4 µg/mL) |  |  |  |
| NCC[C@H](O)C(=O)N[C@@H]1C[C@H](N)[C@@H](O[C@H]2O[C@H](CO)[C@@H](O)[C@H](O)[C@H]2N)[C@H](O[C@@H]2O[C@H](CN)[C@@H](O)[C@H]2O)[C@H]1O | Active | Active | Active | Active | Active | Active | Active | Active |  | 7.8 | 0.16 |  | 70 (≈ 38.9 µg/mL) |  |  |  |
| C[C@@H](N)[C@H]1O[C@@H](O[C@@H]2[C@@H](O)[C@H](N)C[C@H](N)[C@H]2O[C@H]2O[C@H](CO)[C@@H](O)[C@H](O)[C@H]2N)[C@H](O)[C@@H]1O | Active | Active | Active | Active |  |  |  |  | 19.8 | 20.1 | 2.13 | 4990 (≈ 2340 µg/mL) | 78 (≈ 36.5 µg/mL) | Active | Active |  |
| GENTAMICIN SULFATE [listing 2 of 2 here] | Active | Active | Active | Active | Active | Active | Active | Active |  |  |  |  | < 0.75 | Active | Active |  |
